This passage reports inhibition results from PMC6934184, “Selective DNA-PKcs inhibition extends the therapeutic index of localized radiotherapy and chemotherapy” (The Journal of Clinical Investigation, 2019).

The target of the test is T1, PRKX (Homo sapiens, UniProt P51817).
T1 construct: purchased Thermo Fisher Scientific (Life Technologies) SelectScreen
Description: SelectScreen Z'LYTE. The test is classed as biochemical. In a few lines: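 Percent values come from Thermo SelectScreen profiling of NU5455, combining activity and binding assays. CSF1R was run in Z'LYTE format at Km app ATP, and CAMK1 in Adapta format with ATP listed at 10.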

T1 sequence (P51817 whole entry): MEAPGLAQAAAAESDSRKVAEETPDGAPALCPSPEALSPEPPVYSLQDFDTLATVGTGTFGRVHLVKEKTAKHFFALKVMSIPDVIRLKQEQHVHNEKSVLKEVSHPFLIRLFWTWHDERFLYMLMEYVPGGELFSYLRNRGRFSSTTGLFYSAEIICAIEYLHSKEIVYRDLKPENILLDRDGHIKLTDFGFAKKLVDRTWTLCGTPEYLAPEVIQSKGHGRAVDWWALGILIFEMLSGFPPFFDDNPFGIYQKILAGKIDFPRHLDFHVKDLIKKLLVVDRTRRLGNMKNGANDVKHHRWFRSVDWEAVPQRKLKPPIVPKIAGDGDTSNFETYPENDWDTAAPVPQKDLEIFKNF

The term inhibition denotes the percentage by which the read-out fell short of the control. A high value points to a response far below the control. `CN(C(=O)CN1CCOCC1)c1ccc2sc3c(-c4cccc5c(=O)cc(N6CC7CCC(C6)O7)oc45)cccc3c2c1` [NU5455] showed an inhibition at 1 µM of 12.5%.
